Like-named read-outs stand apart in the source and are kept apart here.
Tests used:
Virus FPV = experiment: organism not typed; type: cell-based, Grippe-Virus A/H7N7/; settings: 72 h; for Inhibitionsprozent (Verminderung der Plaquebildung): Zellen EHF
[1] = system: Virus FPV (Stamm Weibridge); type: cell-based, Grippe-Virus A/H7N7/; settings: for inf. Titer in PBE/ml / XA-Titer: MOI = 0,5
Grippe-Virus B/Lii = experiment: One-cycle test, virus yield in calf kidney cell culture; type: cell-based; settings: MOI = 1
Source text: Bei den Mehrcyclen- und Eincyclustests werden einschichtige Zellkulturen einer embryonalen Kalbsniere verwendet, welche mit Grippe-Viren A/H3N2/Texas/77 und B/Lii/MOI = 0.01-0.5 und 1-10 entsprechend infiziert werden. Die Ausbeute an infektiösem und hämaglutinierendem Virus wird in der 24sten Stunde (bei einem Mehrcyclentest) und entsprechend in der zwölften bis fünfzehnten Stunde (bei einem Eincyclustest) ausgerechnet. Der infektiöse Titer wird EID₅₀/ml bestimmt. Dieselben Versuche werden auch mit Virus FPV (Stamm Weibridge) in Zellen EHF(bei Ausrechnung des infektiösen Virus Plaque-bildenden Einheiten und des hämaglutinierenden Virus) durchgeführt. Die Wirksamkeit der Verbindungen wird im Bezug auf die Kontrolle (ohne Inhibitoren) ausgerechnet.

[2] = DD-13 18,7 mg/kg
[3] = read-out: Inhibitionsprozent (Verminderung der Plaquebildung)

Work on `O=C1NCCCN1CN1CCOCC1` [DD-13] yielded an inhibition at 10 µM (Virus FPV; [3]) of 2.3%, an inhibition at 30 µM (Virus FPV; [3]) of 15.2% and an inhibition at 100 µM (Virus FPV; [3]) of 34.3%. For the same molecule, the inhibition at 300 µM (Virus FPV; [3]) was 85%, the inhibition at 1000 µM (Virus FPV; [3]) was 99.2% and the “Inhibitionsprozent (Verminderung der Plaquebildung)” value (Virus FPV; DD-13 3x10^-4 M/1 alone) was 85,00%. The “Verminderung der Ausbeute des hämaglutivierenden Virus (fold)” value ([1]; 60 mkg/ml DD-13 alone) was “viermalige”, the “inf. Titer in PBE/ml” value ([1]; DD-13 15 mkg/ml alone, control without inhibitors 1.7x10^7) was 5x10^6 PBE/ml and the XA-Titer ([1]; DD-13 15 mkg/ml alone, control without inhibitors 2048) was 1024. The “inf. Titer in PBE/ml” value ([1]; DD-13 30 mkg/ml alone, control 1.7x10^7) was 6,9x10^6 PBE/ml, the XA-Titer ([1]; DD-13 30 mkg/ml alone, control 2048) was 512 and the “inf. Titer in PBE/ml” value ([1]; DD-13 60 mkg/ml alone, control 1.7x10^7) was 3,9x10^6 PBE/ml. The XA-Titer ([1]; DD-13 60 mkg/ml alone, control 2048) was 256, the “inf. Titer in log. EID50/ml” value (Grippe-Virus B/Lii; DD-13 12,5 (unit not given) alone, control without inhibitors 6,3) was 4,0 log. EID50/ml and the XA-Titer (Grippe-Virus B/Lii; DD-13 12,5 (unit not given) alone, control without inhibitors 8) was 8. For the same molecule, the “inf. Titer in log. EID50/ml” value (Grippe-Virus B/Lii; DD-13 25 (unit not given) alone, control 6,3) was 2,5 log. EID50/ml, the XA-Titer (Grippe-Virus B/Lii; DD-13 25 (unit not given) alone, control 8) was 4 and the “inf. Titer in log. EID50/ml” value (Grippe-Virus B/Lii; DD-13 50 (unit not given) alone, control 6,3) was 2,0 log. EID50/ml. For the same molecule, the XA-Titer (Grippe-Virus B/Lii; DD-13 50 (unit not given) alone, control 8) was 4 and the “dose as fraction of LD50” value [2] was 1/213.

`CC(N)C12CC3CC(CC(C3)C1)C2` (stereo not drawn) [Rimantadin, reference compound] showed an inhibition at 0.0001 µM (Virus FPV; [3]) of 3.52%, an inhibition at 0.001 µM (Virus FPV; [3]) of 18.4% and an inhibition at 0.01 µM (Virus FPV; [3]) of 48%. The “Inhibitionsprozent (Verminderung der Plaquebildung)” value (Virus FPV; Rimantadin 10^-9 M/1 alone) was 18,37 ± 14,19%, the “Verminderung der Ausbeute des hämaglutivierenden Virus (fold)” value ([1]; 5 mkg/ml Rimantadin alone) was 64 and the “inf. Titer in PBE/ml” value ([1]; Rim. 1 mkg/ml alone, control 1.7x10^7) was 4,2x10^4 PBE/ml. The XA-Titer ([1]; Rim. 1 mkg/ml alone, control 2048) was 32, the “inf. Titer in PBE/ml” value ([1]; Rim. 5 mkg/ml alone, control 1.7x10^7) was 4,4x10^4 PBE/ml and the XA-Titer ([1]; Rim. 5 mkg/ml alone, control 2048) was 32. The “inf. Titer in log. EID50/ml” value (Grippe-Virus B/Lii; Rim. 5 mkg/ml alone, control 6,3) was 6,0 log. EID50/ml, the XA-Titer (Grippe-Virus B/Lii; Rim. 5 mkg/ml alone, control 8) was 4 and the “inf. Titer in log. EID50/ml” value (Grippe-Virus B/Lii; Rim. 25 mkg/ml alone, control 6,3) was 4,7 log. EID50/ml. For the same molecule, the XA-Titer (Grippe-Virus B/Lii; Rim. 25 mkg/ml alone, control 8) was 4.

From patent publication EP0324875A1 (priority 1988, dated 1989)
